Experimental data from ChEMBL document CHEMBL1201862, “PubChem BioAssay data set” (2004).
Calls of active or inactive are those of the source.

Columns and labels:
[1] = molecular target: T1, Short transient receptor potential channel 4 (Mus musculus, UniProt Q9QUQ5); assay: mouse TRPC4 channel inhibitors, dose response, cell-based, HEK293 TRPC4/mu-opioid, Fluo-4 calcium (AID 434942); assay type: functional;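 further: potency of inhibitors blocking the TRPC4 calcium response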
T1 sequence (Q9QUQ5 whole entry): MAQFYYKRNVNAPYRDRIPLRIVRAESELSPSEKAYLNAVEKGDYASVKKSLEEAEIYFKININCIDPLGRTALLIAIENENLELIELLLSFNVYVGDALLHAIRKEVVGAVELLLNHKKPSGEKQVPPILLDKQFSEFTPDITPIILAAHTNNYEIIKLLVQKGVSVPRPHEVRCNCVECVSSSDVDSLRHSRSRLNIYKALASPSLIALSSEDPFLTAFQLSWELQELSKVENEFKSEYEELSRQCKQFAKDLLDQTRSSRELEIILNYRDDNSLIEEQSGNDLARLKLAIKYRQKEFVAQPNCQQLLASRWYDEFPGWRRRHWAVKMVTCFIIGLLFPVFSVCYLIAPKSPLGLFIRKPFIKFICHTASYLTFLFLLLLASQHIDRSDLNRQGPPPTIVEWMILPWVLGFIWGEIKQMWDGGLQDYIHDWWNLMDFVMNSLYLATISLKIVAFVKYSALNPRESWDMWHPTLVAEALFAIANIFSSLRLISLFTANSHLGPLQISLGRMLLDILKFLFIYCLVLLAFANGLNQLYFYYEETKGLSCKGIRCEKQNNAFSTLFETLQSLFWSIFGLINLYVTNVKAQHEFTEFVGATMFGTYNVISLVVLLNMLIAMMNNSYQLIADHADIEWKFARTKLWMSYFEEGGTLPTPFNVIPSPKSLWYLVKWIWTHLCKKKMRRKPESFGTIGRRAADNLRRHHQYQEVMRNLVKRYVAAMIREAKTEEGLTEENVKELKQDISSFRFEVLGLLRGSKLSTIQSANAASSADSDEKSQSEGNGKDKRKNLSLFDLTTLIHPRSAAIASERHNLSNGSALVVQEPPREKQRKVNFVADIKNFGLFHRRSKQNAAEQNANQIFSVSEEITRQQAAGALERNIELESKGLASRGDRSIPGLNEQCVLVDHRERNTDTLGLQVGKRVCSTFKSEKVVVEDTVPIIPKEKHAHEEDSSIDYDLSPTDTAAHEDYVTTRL

[2] = molecular target: T1, Short transient receptor potential channel 4; assay: SAR Analysis for the identification of selective inhibits of the transient receptor potential cation channel C4 (TRPC4): Automated Electrophysiology. [Related pubchem assays (depositor defined):AID2256]; assay type: functional
[3] = inhibitors of intracellular T. cruzi replication, confirmation, NIH3T3 host cells, beta-gal luminescence (AID 2044); assay type: functional, cell-based;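 further: intracellular parasites grown in NIH/3T3 mouse fibroblasts as host cells; luminescent beta-galactosidase reporter signal from transgenic T. cruzi replicating inside host cells; inhibitors lower the luminescence signal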
[4] = molecular target: Intestinal-type alkaline phosphatase (Homo sapiens, UniProt P09923); assay: inhibition of human intestinal alkaline phosphatase – biochemical, dose response (AID 488876); assay type: functional
[5] = molecular target: T2, Alkaline phosphatase, tissue-nonspecific isozyme (Homo sapiens, UniProt P05186); assay: TNAP enzyme inhibition by screening hits, dose response, selectivity assay for mouse IAP inhibitor project, biochemical, human TNAP, uHTS hits (AID 488906); assay type: functional
T2 sequence (P05186 whole entry): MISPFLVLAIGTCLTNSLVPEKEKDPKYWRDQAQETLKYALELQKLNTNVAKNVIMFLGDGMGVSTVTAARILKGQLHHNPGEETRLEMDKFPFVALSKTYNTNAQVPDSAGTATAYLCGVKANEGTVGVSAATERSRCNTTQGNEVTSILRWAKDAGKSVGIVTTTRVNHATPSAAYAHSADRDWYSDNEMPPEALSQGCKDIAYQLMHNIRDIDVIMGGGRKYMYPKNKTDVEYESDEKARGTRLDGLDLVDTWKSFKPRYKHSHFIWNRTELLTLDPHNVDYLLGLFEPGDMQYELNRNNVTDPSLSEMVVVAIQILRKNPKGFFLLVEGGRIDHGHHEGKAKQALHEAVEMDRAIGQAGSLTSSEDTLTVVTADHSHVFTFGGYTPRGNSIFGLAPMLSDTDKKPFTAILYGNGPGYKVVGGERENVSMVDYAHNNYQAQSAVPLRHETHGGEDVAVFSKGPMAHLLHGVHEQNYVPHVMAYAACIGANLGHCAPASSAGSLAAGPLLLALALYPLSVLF

[6] = molecular target: Intestinal-type alkaline phosphatase (Mus musculus, UniProt P24822); assay: PubChem AID 488785; assay type: functional
[7] = cytotoxicity toward NIH3T3 fibroblasts, dose response, counter-screen, cell-based, ATP luminescence, mouse fibroblasts (AID 2010); assay type: functional;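 further: cells exposed to compound for about 90 hours before reading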
[8] = molecular target: T3, Voltage-gated N-type calcium channel alpha-1B subunit/Amyloid beta A4 precursor protein-binding family A member 1 (Homo sapiens, UniProt Q00975+Q02410); assay type: protein assay
[9] = molecular target: T4, Carboxy-terminal domain RNA polymerase II polypeptide A small phosphatase 1 (Homo sapiens, UniProt Q9GZU7); assay: inhibitors of CTDSP1, concentration-response testing, biochemical assay, absorbance-based, actives from ultra-high-throughput screening (AID 540297); assay type: functional
T4 sequence (Q9GZU7 whole entry): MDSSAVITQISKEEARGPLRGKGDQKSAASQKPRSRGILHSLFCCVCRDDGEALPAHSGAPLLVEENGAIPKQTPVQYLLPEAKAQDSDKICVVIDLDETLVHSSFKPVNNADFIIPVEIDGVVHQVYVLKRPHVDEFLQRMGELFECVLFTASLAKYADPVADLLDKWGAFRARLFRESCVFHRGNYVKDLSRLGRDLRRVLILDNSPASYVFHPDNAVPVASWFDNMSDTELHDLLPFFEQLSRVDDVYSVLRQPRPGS

[10] = molecular target: T5, Dual specificity protein phosphatase 3 (Homo sapiens, UniProt P51452); assay: VHR1 phosphatase inhibitors, biochemical (AID 1878)
[11] = molecular target: T6, Dual specificity protein phosphatase 6 (Rattus norvegicus, UniProt Q64346); assay: MKP-3 phosphatase inhibitors, primary screen, biochemical, rat enzyme, in vitro (AID 425)
T6 sequence (Q64346 whole entry): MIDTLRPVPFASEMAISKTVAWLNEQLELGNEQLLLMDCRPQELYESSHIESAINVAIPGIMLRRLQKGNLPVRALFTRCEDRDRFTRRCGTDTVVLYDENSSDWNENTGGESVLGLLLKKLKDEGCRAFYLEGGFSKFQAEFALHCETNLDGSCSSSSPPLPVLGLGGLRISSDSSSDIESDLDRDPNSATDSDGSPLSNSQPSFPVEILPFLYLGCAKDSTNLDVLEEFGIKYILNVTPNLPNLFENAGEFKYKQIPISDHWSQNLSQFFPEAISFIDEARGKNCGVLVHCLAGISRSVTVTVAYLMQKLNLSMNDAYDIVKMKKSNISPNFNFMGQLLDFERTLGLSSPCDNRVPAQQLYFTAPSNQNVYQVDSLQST

[12] = molecular target: T5, Dual specificity protein phosphatase 3; assay: VHR1 phosphatase inhibitors, primary screen, biochemical, absorbance, uHTS (AID 1654)
[13] = molecular target: T3, Voltage-gated N-type calcium channel alpha-1B subunit/Amyloid beta A4 precursor protein-binding family A member 1; assay type: protein assay; remark: listed apart in the source
[14] = molecular target: Cytochrome P450 2D6 (Homo sapiens, UniProt P10635);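 further: CYP2D6 member of a cytochrome P450 panel assay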
[15] = growth suppression of beta-catenin-knockout colon cells, dose response, cell-based, HCT116, human colon tumor (AID 1045); assay type: functional;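 further: HCT116 colon tumor cells with beta catenin knocked out; cells exposed to compound for 60 hours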
[16] = growth suppression of PTEN-null colon cells, dose response, cell-based, HCT116 PTEN knockout (AID 1047); assay type: functional;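 further: HCT116 colon tumor cells with PTEN knocked out; cells exposed to compound for 60 hours before readout; potency for loss of cell viability measured by luminescence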
[17] = molecular target: T7, G-protein coupled receptor 35 (Homo sapiens, UniProt Q9HC97); assay: GPR35 antagonists blocking zaprinast-driven arrestin recruitment, primary screen, imaging, U2OS, beta-arrestin-GFP, zaprinast agonist (AID 2058); assay type: functional;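 further: antagonist potency meaning inhibition of agonist-induced arrestin redistribution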
[18] = molecular target: G-protein coupled receptor 55 (Homo sapiens, UniProt Q9Y2T6); assay: GPR55 antagonists, SAR follow-up, counter-screen for GPR35 antagonist project, imaging, image-based (AID 2397); assay type: functional
[19] = molecular target: T8, Beta-2 adrenergic receptor (Homo sapiens, UniProt P07550); assay: beta2AR agonists driving receptor internalization, dose response, cell-based, FAP fluorogen, flow cytometry, cherry pick 1 (AID 588763); assay type: functional
[20] = molecular target: T7, G-protein coupled receptor 35; assay: SAR Analysis for the identification of Selective Antagonists of ERK1/2 Activity in GPR35-Overexpressing U2OS Cells. [Related pubchem assays: 2079, 2058 ]; assay type: functional, cell-based
[21] = microbe, parasite or virus in culture; assay type: functional; conditions: Mycobacterium tuberculosis
[22] = molecular target: T8, Beta-2 adrenergic receptor; assay: Dose response for HTS for Beta-2AR agonists via FAP method from Powderset3.; assay type: functional
[23] = molecular target: FAD-linked sulfhydryl oxidase ALR (Homo sapiens, UniProt P55789); assay: inhibitors of human ALR sulfhydryl oxidase, dose response, biochemical, H2O2 detection, luminescence, cherry-pick (AID 493248)
[24] = molecular target: CAAX prenyl protease 2 (Homo sapiens, UniProt Q9Y256); assay: human Rce1 protease inhibitors, dose response, biochemical, yeast membranes, quenched-peptide fluorescence, cherry-pick (AID 588849)
[25] = molecular target: Trypsin (Sus scrofa, UniProt P00761); assay: porcine trypsin inhibitors, dose response, selectivity assay for Rce1 protease inhibitor project, biochemical, quenched peptide fluorescence, cherry-pick (AID 488789)
[26] = molecular target: CAAX prenyl protease 1 (Saccharomyces cerevisiae S288c, UniProt P47154); assay: Ste24 protease inhibitors, dose response, biochemical, S. cerevisiae, plate reader, cherry-pick (AID 488815)
CAAX prenyl protease 1, sequence (P47154 whole entry): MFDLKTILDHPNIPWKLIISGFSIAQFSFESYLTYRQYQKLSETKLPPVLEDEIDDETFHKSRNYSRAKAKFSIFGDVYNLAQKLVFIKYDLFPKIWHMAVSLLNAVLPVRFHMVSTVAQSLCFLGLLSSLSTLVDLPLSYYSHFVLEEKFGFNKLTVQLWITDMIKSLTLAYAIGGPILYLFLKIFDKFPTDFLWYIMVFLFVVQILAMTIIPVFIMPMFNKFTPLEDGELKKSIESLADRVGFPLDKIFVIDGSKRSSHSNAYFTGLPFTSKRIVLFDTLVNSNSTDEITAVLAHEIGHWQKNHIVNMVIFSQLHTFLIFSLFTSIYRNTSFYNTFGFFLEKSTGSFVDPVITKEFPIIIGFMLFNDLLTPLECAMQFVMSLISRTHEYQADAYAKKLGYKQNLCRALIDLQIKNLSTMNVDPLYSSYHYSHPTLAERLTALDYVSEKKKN

T7 sequence (Q9HC97 whole entry): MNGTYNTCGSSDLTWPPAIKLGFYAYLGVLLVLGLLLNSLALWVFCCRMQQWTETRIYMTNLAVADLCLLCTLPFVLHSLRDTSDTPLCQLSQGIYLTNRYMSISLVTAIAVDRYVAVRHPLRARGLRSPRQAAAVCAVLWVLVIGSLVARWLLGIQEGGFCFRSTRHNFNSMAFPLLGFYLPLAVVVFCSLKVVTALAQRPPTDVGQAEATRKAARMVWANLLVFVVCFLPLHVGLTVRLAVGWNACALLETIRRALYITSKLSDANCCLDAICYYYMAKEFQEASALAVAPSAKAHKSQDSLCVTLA
T5 sequence (P51452 whole entry): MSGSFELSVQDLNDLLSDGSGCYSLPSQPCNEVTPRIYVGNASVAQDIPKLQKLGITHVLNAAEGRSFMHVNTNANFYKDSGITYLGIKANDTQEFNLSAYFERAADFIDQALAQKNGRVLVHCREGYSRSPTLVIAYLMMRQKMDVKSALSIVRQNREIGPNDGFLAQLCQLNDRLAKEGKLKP
T3 sequence (Q00975 whole entry, the tested form may be a part): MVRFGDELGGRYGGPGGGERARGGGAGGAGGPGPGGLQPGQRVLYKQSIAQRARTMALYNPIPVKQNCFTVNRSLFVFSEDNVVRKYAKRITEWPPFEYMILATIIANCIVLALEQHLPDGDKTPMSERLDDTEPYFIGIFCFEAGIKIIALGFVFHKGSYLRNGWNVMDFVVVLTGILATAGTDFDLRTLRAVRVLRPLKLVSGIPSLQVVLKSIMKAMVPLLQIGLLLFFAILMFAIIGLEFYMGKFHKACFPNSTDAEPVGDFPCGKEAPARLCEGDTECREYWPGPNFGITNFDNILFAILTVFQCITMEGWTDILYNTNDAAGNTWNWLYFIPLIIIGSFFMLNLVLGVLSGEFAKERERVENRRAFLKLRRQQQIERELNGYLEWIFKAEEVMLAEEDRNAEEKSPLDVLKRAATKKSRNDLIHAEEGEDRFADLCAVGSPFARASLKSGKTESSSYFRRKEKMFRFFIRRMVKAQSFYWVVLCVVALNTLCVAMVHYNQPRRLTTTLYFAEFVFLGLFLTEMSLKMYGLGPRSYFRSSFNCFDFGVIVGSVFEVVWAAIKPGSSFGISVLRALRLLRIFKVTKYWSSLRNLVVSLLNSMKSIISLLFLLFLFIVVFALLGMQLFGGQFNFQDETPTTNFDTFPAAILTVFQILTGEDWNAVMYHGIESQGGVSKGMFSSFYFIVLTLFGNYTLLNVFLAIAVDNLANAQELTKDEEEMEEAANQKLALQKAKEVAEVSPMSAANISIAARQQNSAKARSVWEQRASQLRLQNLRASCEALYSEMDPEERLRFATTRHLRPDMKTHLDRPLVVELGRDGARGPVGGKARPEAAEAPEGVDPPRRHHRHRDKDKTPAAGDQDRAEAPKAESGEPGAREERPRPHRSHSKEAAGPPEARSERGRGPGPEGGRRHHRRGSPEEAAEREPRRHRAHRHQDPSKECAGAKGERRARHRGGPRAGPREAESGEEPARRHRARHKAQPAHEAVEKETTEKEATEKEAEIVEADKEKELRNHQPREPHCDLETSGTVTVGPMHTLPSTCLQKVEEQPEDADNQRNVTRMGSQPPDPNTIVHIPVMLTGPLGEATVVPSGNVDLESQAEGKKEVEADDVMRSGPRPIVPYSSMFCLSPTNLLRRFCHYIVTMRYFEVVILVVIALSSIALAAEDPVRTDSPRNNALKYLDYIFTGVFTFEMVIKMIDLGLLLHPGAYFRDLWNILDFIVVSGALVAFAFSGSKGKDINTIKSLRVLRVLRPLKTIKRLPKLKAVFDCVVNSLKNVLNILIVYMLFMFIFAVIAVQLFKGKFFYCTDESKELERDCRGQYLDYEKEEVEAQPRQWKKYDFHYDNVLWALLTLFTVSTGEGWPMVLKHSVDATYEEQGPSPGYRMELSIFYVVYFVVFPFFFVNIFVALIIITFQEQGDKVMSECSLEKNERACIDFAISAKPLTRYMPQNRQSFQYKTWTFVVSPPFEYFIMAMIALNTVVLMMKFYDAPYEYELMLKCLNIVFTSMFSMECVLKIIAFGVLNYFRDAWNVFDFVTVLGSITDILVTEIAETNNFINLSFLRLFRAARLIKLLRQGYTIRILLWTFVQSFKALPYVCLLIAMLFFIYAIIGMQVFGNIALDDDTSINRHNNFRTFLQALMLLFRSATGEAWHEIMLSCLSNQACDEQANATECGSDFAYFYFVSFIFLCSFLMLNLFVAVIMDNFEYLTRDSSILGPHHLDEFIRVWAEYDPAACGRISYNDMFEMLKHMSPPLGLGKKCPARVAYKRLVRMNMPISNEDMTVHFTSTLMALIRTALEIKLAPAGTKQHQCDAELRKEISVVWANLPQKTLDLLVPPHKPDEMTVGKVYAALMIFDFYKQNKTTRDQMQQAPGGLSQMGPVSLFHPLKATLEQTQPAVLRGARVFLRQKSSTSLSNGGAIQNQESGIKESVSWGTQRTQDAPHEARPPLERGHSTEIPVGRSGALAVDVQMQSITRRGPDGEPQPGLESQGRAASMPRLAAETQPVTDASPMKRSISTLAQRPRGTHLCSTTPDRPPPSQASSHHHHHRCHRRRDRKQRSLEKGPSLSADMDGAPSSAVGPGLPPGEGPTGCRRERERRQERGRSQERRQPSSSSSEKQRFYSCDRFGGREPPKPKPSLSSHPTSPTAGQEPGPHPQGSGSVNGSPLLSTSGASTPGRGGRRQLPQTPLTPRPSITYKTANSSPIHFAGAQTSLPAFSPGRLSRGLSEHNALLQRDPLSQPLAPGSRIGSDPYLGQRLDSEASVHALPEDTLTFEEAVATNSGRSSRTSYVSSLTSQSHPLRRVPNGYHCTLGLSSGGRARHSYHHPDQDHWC
T3 sequence (Q02410 whole entry, the tested form may be a part): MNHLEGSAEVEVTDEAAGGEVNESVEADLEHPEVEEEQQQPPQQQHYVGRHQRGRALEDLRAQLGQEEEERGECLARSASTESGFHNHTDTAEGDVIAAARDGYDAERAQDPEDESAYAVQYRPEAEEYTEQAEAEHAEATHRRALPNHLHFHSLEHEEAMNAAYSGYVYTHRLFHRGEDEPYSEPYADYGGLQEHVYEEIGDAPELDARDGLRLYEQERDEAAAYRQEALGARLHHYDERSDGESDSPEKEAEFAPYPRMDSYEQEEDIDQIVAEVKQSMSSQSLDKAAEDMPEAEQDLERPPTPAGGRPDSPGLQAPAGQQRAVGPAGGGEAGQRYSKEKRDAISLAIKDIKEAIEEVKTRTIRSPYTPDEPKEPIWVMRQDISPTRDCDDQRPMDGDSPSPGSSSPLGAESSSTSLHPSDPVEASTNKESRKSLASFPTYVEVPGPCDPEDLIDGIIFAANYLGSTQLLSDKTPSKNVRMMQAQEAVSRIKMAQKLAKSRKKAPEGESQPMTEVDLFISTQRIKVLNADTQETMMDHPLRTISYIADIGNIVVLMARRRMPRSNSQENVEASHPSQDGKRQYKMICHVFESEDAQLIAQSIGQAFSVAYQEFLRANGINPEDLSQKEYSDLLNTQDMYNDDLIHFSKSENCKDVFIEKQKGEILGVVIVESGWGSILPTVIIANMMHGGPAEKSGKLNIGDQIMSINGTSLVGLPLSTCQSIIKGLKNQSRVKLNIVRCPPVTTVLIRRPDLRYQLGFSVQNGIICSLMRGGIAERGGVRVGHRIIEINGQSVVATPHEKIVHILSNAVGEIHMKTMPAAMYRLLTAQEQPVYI
T8 sequence (P07550 whole entry): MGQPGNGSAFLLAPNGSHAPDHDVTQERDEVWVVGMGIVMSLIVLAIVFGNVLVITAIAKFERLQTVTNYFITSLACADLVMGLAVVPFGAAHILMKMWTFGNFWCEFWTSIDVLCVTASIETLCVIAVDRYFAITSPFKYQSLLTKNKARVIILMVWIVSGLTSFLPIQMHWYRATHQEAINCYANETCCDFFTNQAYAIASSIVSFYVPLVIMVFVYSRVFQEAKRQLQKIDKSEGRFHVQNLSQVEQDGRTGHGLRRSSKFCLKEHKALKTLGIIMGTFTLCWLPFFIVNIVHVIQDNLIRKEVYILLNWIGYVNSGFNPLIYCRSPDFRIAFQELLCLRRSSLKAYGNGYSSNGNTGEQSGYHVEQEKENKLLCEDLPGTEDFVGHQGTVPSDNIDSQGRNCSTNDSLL
Trypsin, sequence (P00761 whole entry): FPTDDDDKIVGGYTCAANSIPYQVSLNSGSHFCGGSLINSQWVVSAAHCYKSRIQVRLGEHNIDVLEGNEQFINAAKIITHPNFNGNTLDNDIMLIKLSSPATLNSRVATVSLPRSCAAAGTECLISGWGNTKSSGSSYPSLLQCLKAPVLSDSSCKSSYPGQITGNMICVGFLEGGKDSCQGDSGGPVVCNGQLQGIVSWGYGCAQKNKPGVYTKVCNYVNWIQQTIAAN
FAD-linked sulfhydryl oxidase ALR, sequence (P55789 whole entry): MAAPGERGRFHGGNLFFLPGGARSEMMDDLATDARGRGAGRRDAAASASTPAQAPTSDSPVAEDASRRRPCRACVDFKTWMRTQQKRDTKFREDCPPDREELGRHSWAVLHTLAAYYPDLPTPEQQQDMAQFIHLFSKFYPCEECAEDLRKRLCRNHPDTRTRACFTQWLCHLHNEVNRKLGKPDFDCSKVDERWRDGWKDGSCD

**Q.** Which results are given for `N=C(NC1CCCCC1)c1ccc(Cl)cc1`?
**A.** EC50 [1]: 1.68 µM (active); IC50 [2]: 4.56 µM (active)

**Q.** Which EC50 [3] does the source give for `Cc1nn(C(C)C)c(C)c1CN1CCC(C(=O)Nc2cccc(-c3cccc(F)c3)c2)CC1` here?
**A.** 1.15 µM (active)

**Q.** What about the IC50 [4] of the same compound?
**A.** 12 µM (active)

**Q.** And the IC50 [5]?
**A.** 53 µM (active)

**Q.** What about the IC50 [6] of the same compound?
**A.** 7.53 µM (active)

**Q.** And the EC50 [7]?
**A.** 30.4 µM (active)

**Q.** For `COc1ccc(NC(=O)c2cc3c(COC(C)=O)cnc(C)c3o/c2=N\c2cccc(C(=O)O)c2)c(OC)c1`, which IC50 [8] is on record?
**A.** > 50 µM (inactive)

**Q.** What about the IC50 [9] of the same compound?
**A.** 0.737 µM (active)

**Q.** What about the IC50 [10] of the same compound?
**A.** 1.53 µM (active)

**Q.** And the IC50 [11]?
**A.** > 158 µM (not active)

**Q.** What about the IC50 [12] of the same compound?
**A.** 4.9 µM (active)

**Q.** And the IC50 [13]?
**A.** 3.13 µM (active)

**Q.** For `Cc1cc2c(s1)CCCCC(=O)N2`, which AC50 [14] is on record?
**A.** inconclusive

**Q.** With `Cc1ccccc1N1CCN(c2ncnc3c2cnn3Cc2ccc(Cl)cc2)CC1` as the compound, how does the EC50 [15] read?
**A.** 54.1 µM (active)

**Q.** What about the EC50 [16] of the same compound?
**A.** 42.2 µM (active)

**Q.** What about the IC50 [17] of the same compound?
**A.** 0.615 µM (active)

**Q.** What about the IC50 [18] of the same compound?
**A.** > 32 µM (inactive)

**Q.** What about the EC50 [19] of the same compound?
**A.** 4.09 µM (active)

**Q.** And the IC50 [20]?
**A.** > 32 µM (not active)

**Q.** And the CC50 [21]?
**A.** > 40 µM (active)

**Q.** And the EC50 [22]?
**A.** 1.14 µM (active)

**Q.** Which results are given for `Oc1ccc(-c2cn3cc(C(F)(F)F)ccc3n2)cc1`?
**A.** AC50 [23]: 3.4 µM (active); AC50 [24]: 10.5 µM (active); AC50 [25]: 11.1 µM (active); AC50 [26]: 8.29 µM (active)
